Test results as given in patent US20260284003A1, “COMPOSITIONS AND METHOD FOR MANAGEMENT OF PAIN AND ALLERGY” (priority 2023, published 2026).

Experiments:
[1] = system: Ovalbumin Induced Respiratory Allergy; test: Evaluation of nasal symptoms, ovalbumin induced respiratory allergy; settings: BCP 10, PEA 3, BPE 10, BPB 30 mg/kg; for Nasal Redness Score: score 0—normal, 1—faint, 2—medium, 3—dark
Protocol: BALB/c mice (20-30 g body weight) were housed under standard laboratory conditions (temperature 23.5° C., humidity=58-64%), with 12 h light and 12 h dark cycle, fed with normal diet and water ad libitum. […] The number of animals used in each group is 6.
(§2) Control animals were administered with 2% Gum acacia in PBS. All the animals except in Group I were actively sensitized by an intraperitoneal (i.p.) injection of OVA (20 μg/kg body weight) and Aluminum hydroxide (2 mg/kg body weight) in PBS on 0 and 14th day and were challenged with 1% OVA in PBS on 21st, 22nd, and 23rd using Nebulizer for 1 hour. The treatment drugs and standard drug were administered orally for 5 days (18th to 23rd day).
On day 21, 22 and 23 nasal symptoms were evaluated within a 10-minute period after the OVA challenge. […] Sneezing is characterized by an explosive expiration just after a deep inspiration and nose rubbing is characterized by an external perinasal scratch with either one or both forelimbs of animal. Another parameter that was evaluated was redness of the nose (FIG. 13) was by observing the intensity in redness of nostrils and scoring them as the following: 0—normal, 1—faint, 2—medium, and 3—dark.

IL-6 = test: Inhibition of IL-6 in LPS induced RAW 264.7 macrophages (ELISA); settings: RAW 264.7, LPS 100 ng/mL; FIG. 3A-3D
Protocol: (§3) Mouse macrophage cell line (RAW264.7) was purchased from National Center for Cell Science (NCCS, Pune, India) and maintained as a monolayer culture in Dulbecco's modified minimal essential medium (DMEM, Life Technologies, CA, USA) supplemented with 10% (v/v) fetal bovine serum (FBS; GIBCO/Invitrogen, Carlsbad, CA) at 37° C. in a humidified 5% CO2 incubator.
RAW 264.7 (5×10^5 cells/well) macrophage cells were induced with LPS (100 ng/mL) along with or without different concentrations of Samples. The supernatants were used for IL6 estimation using ELISA kits as per the manufacturer's instruction (R&D Systems, Minneapolis, Minnesota, USA).

Mouse mast cells P815 = test: Inhibition of histamine release from C48/80 activated mast cells; assay type: cell-based; settings: P815, 80 μg/ml C48/80, 30 min; FIG. 4A-4D
Protocol: Reaction was terminated by placing the cells on ice for 10 mins and centrifuged for 5 minutes at 2400 rpm. 100 μL of cell supernatant was mixed with 50 μL of 4N NaOH and 10 μL of O-Phthaldialdehyde (OPT, 1 mg·mL-1 in methanol, Sigma). By incubation at room temperature for 10 min, 50 μL of 1N HCl was added to stop the reaction. The fluorescence was measured at Ex/Em of 390/460 nm using a microplate reader (FLOUSTAR).

[2] = system: Human epidermal keratinocyte cells (HaCaT); test: Inhibition of intracellular calcium (H2O2 stimulated, Fluo-8AM); assay type: cell-based; settings: samples pre-treated 2 hours, 10 mM H2O2 30 mins, FIG. 1A-1D, combination ratio 1:1:0.3
Protocol: Various environmental stimuli or neurotransmitters often cause changes in intracellular calcium concentration in the skin. Keratinocytes, primary cell type found in the outermost layer of the skin. Epidermal keratinocytes express functional sensory receptors, such as TRPV1, TRPV3, and TRPV4. Pain stimulus increases intracellular calcium through TRPV channels. Hydrogen peroxide mediated calcium stimulation was tested. Human epidermal keratinocyte cells (HaCaT) (5×10^4) were seeded in 96 black well plate for overnight. Samples were Pre-treated for 2 hours in 1% DMEM. Cells were stimulated with 10 mM H2O2 for 30 mins, and Fluo-8AM dye was added (HBBS buffer) for 1 hr. After incubation, cells were washed with PBS twice and the fluorescence was measured at the Ex/Em of 485/520 nm.

[3] = system: Ovalbumin Induced Respiratory Allergy; test: Bronchoalveolar lavage fluid (BALF) cell count, ovalbumin induced respiratory allergy; settings: BCP 10, PEA 3, BPE 10, BPB 30 mg/kg; for Differential Count, PMN - E / Differential Count, PMN - N / Differential Count, Lymphocytes / Differential Count, Macrophages: BALF; for Differential Count, PMN - E: eosinophil, control 0.50, OVA 1.67; for Differential Count, PMN - N: neutrophil, control 1.00, OVA 5.33; for Differential Count, Lymphocytes: control 1.83, OVA 12.00; for Differential Count, Macrophages: control 3.33, OVA 25.17; for Cellular Count (total cell count of BALF): control 6.93, OVA 44.17
Protocol: BALB/c mice (20-30 g body weight) were housed under standard laboratory conditions (temperature 23.5° C., humidity=58-64%), with 12 h light and 12 h dark cycle, fed with normal diet and water ad libitum.
as §2
On day 25, 48 h after final OVA challenge (saline challenge for normal control group), the animals were anesthetized for collection of blood and Bronchoalveolar Lavage (BAL) fluid for biochemical evaluation.
On the day of sacrifice mice were anesthetized, the lungs were gently lavaged three times via the tracheal tube with a volume of 0.7 ml phosphate buffered saline (PBS). BALF was immediately centrifuged at 1500 rpm for 5 min, and the collected supernatant was stored at −70° C. until further analysis. The cell pellet was analysed to determine the total cell count of BALF (Table 9, FIG. 14) and the count of Macrophages, neutrophil, eosinophil, and lymphocyte (Table 10, FIG. 15) counts using a hematology analyzer in BALF fluids.

COX-2 = COX-2 expression in spinal tissue lysate (Western blotting); assay type: in vivo, C57BL/6 mice; settings: normalized to GAPDH, cisplatin = 1, control 0.7, BCP 10 mg, PEA 5 mg, BPE 10 mg, BPB 15 mg, Ibuprofen 30 mg, oral 21 days
Protocol: (§1) In the current study, TRPV1 and COX-2 expression was assessed in the spinal tissue lysate of the animals, using Western blotting. Briefly, proteins from the spinal tissue were separated in a 10% SDS-PAGE and transferred to PVDF membrane. The TRPV1 and COX-2 expressions were probed using specific monoclonal antibodies (ABclonal, Dusseldorf, Germany). GAPDH was used as housekeeping gene control. The expression of TRPV1 and COX-2 were normalized to that of GAPDH, and fold change was calculated w.r.t cisplatin group.

[4] = system: Cisplatin induced peripheral neuropathy animal models; test: Hot plate test, cisplatin induced peripheral neuropathy; assay type: in vivo, C57BL/6 mice; settings: reaction latency, 52° C.; BCP 10 mg, PEA 5 mg, BPE 10 mg, BPB 15 mg, Ibuprofen 30 mg
Protocol: Animals are placed on the hot plate one at a time. Latency to respond to the heat stimulus is measured by the amount of time it takes for the animal to lick one of its paws. Animals were placed on a hot-plate apparatus. In order to measure thermal pain, the temperature of the hot plate surface was set to 52° C. The reaction latency as well as the time between when the animals were placed and the onset of paw-licking or jumping behaviors were measured in seconds(s). To minimize tissue damage, a cut-off time of 40 s was adopted (Moureq et al. Alleviation of cisplatin-induced neuropathic pain, neuronal apoptosis, and systemic inflammation in mice by rapamycin., Frontiers in Aging Neuroscience., 14, 2022).

[5] = system: Cisplatin induced peripheral neuropathy animal models; test: Tail-flick test, cisplatin induced peripheral neuropathy; assay type: in vivo, C57BL/6 mice; settings: tail withdrawal latency; BCP 10 mg, PEA 5 mg, BPE 10 mg, BPB 15 mg, Ibuprofen 30 mg
Protocol: This is a test of acute nociception in which a high-intensity thermal stimulus is directed to the tail of a mouse or a rat. The time from onset of stimulation to a rapid flick/withdrawal of the tail from heat source is recorded. Thermal (radiant heat) sensation of animal tail part was assessed by observation of tail flick response as per D'Aemour and Smith method with minor modifications (Hargreaves et al. A new and sensitive method for measuring thermal nociception in cutaneous hyperalgesia. Pain 32 (1988) 77-88). The one-centimeter distance from the tail terminal region was located on the slit of the plantar device. Thermal sensitivity of mice tail was recorded as tail withdrawal latency. Brisk withdrawal of tail from the plantar device was considered as a progression of neuropathic pain. Cut-off stimuli, i.e., 15 s was maintained to avoid potential tissue damage. Mice were tested after 24 h of treatment injections for the drug-response evaluation.

[6] = system: Ovalbumin Induced Respiratory Allergy; test: Organ weight determination, ovalbumin induced respiratory allergy; assay type: in vivo, BALB/c mice; settings: for organ weight (in words): compared OVA control, FIG. 10, Table 5; for Organ weight, Spleen / Organ weight, Lungs: mean, BCP 10 mg/kg, PEA 3 mg/kg, BPE 10 mg/kg, BPB 30 mg/kg oral 5 days; for Organ weight, Spleen: control 0.26, OVA 0.80; for Organ weight, Lungs: control 0.65, OVA 1.08
Description: It is widely known that lungs and spleen weight increase during allergy.

TRPV1 = TRPV1 expression in spinal tissue lysate (Western blotting); assay type: in vivo, C57BL/6 mice; settings: normalized to GAPDH, cisplatin = 1, control 0.3, BCP 10 mg, PEA 5 mg, BPE 10 mg, BPB 15 mg, Ibuprofen 30 mg, oral 21 days
Protocol: as §1

Interleukin-1β (IL-1β) = test: IL-1β in spinal fluids, cisplatin induced peripheral neuropathy (ELISA); settings: cisplatin mice, oral 21 days, FIG. 6
Protocol: (§4) As an illustrative example to evaluate the effect of the composition on reducing pain, in-vivo experiments were carried out in Cisplatin induced peripheral neuropathy animal models.
(§5) In the present study, these were estimated in the spinal fluids of the animals using ELISA kits as per the manufacturer's instruction (R&D Systems, Minneapolis, Minnesota, USA).

[7] = system: tumor necrosis factor-α (TNF-α); test: TNF-α in spinal fluids, cisplatin induced peripheral neuropathy (ELISA); settings: cisplatin mice, oral 21 days, FIG. 5
Protocol: as §4, §5

inducible nitric oxide = test: Inhibition of inducible nitric oxide (Griess reaction); settings: macrophages, nitrite in cell supernatant; FIG. 2A-2C
Protocol: as §3
The Nitrite estimation was carried out using the Griess reaction. To the 50 μL of cell supernatant, Griess reagent I (50 μL) and Griess reagent II (50 μL) were added and incubated for 10 min at room temperature and absorbance were read at 540 nm using Microplate reader.

[8] = day 21, 10-minute period after OVA challenge, OVA 6.00
[9] = day 21, 10-minute period after OVA challenge, OVA 88.67
[10] = day 22, 10-minute period after OVA challenge, OVA 5.50
[11] = day 22, 10-minute period after OVA challenge, OVA 82.17
[12] = day 23, 10-minute period after OVA challenge, OVA 4.00
[13] = day 23, 10-minute period after OVA challenge, OVA 83.17

Structure (SMILES) | Number of Sneezing [1, 8] | Nose rubbing [1, 9] | Number of Sneezing [1, 10] | Nose rubbing [1, 11] | Nasal Redness Score ([1]; day 22, OVA 2.17) | Number of Sneezing [1, 12] | Nose rubbing [1, 13] | Nasal Redness Score ([1]; day 23, OVA 1.17) | inhibition of IL6 induced by LPS (IL-6) | inhibition of histamine release from mast cells (Mouse mast cells P815) | inhibition of intracellular calcium levels [2] | Differential Count, PMN - E [3] | Differential Count, PMN - N [3] | Differential Count, Lymphocytes [3] | Differential Count, Macrophages [3] | Cellular Count (total cell count of BALF) [3] | Cox 2 expression (fold change w.r.t cisplatin group) (COX-2) | Hot plate test Mean Diff., Cisplatin vs. treatment (Tukey's multiple comparisons test) [4] | Tail Flick test Mean Diff., Cisplatin vs. treatment (Tukey's multiple comparisons test) [5] | organ weight (in words) [6] | further results
CCCCCCCCCCCCCCCC(=O)NCCO [PEA, Palmitoylethanolamide] | 2.60 | 66.40 | 2.80 | 58.40 | 1.00 | 3.00 | 66.40 | 0.80 | dose dependent inhibition of IL6 induced by LPS | lower activity | showed inhibition of intracellular calcium levels | 1.20 | 1.80 | 2.80 | 5.00 | 10.80 | 0.3 | −5.958 | −4.167 | showed decrease in organ weight | Organ weight, Spleen [6]: 0.50; Organ weight, Lungs [6]: 0.83; TRPV1 expression (fold change w.r.t cisplatin group) (TRPV1): 2.8
C=C1CC/C=C(\C)CC[C@@H]2[C@@H]1CC2(C)C [BCP, β-Caryophyllene] | 3.33 | 52.83 | 2.67 | 51.33 | 0.67 | 1.50 | 52.83 | 0.17 | lower activity | dose dependent inhibition of histamine release from mast cells | showed inhibition of intracellular calcium levels | 1.50 | 1.50 | 4.17 | 11.00 | 18.17 | 0.8 | −12.13 | −3.125 | showed decrease in organ weight | inhibition of Interleukin-1β (IL-1β) (Interleukin-1β (IL-1β)): showed inhibition; inhibition of tumor necrosis factor-α (TNF-α) [7]: showed inhibition; Organ weight, Spleen [6]: 0.51; Organ weight, Lungs [6]: 0.76; TRPV1 expression (fold change w.r.t cisplatin group) (TRPV1): 0.1; inhibition of nitric oxide levels (inducible nitric oxide): showed inhibition of nitric oxide levels
